Source: patent EP1131073B1, “USE OF STAUROSPORINE DERIVATIVES FOR TREATING OCULAR NEOVASCULAR DISEASES” (Novartis AG, priority 1998, dated 2000)

Legend:
[1] = system: retinal neovascularization; assay: Oxygen-induced ischemic retinopathy in mice, lectin-stained retinal sections with image analysis; format: in vivo, C57/BL6J mice; conditions: for clumps of neovascularization on the surface of the retina: compared to vehicle-treated control mice
Protocol: Ischemic retinopathy is produced in C57/BL6J mice by a method described by Smith et al., Oxygen-induced Retinopathy in the Mouse, Invest. Ophthalmol. Vis. Sci. 35, 101-111 (1994). Seven-day-old mice and their mothers are placed in an airtight incubator and exposed to an atmosphere of 75 ± 3% oxygen for 5 days. Incubator temperature is maintained at 23 ± 2°C, and oxygen is measured every 8 hours with an oxygen analyzer. After 5 days, the mice are removed from the incubator, placed in room air, and subjected to a drug treatment. […] Vehicle (1% DMSO) or vehicle containing various concentrations of the drug (volume = 10 µl per gram body weight) is placed in the stomach by gavage.
(§1) After 5 days of treatment, the mice are sacrificed, eyes are rapidly removed and frozen in optimum cutting temperature embedding compound (OCT; Miles Diagnostics, Elkhart, IN) or fixed in 10% phosphate-buffered formalin and embedded in paraffin. Adult C57BL6J mice are also treated by gavage with the drug or vehicle and after 5 days, they are sacrificed and their eyes are processed for frozen or paraffin sections.
Slides are incubated in methanol/H2O2 for 10 minutes at 4°C, washed with 0.05 M Tris-buffered saline, pH 7.6 (TBS), and incubated for 30 minutes in 10% normal porcine serum. Slides are incubated 2 hours at room temperature with biotinylated lectin and after rinsing with 0.05M TBS, they are incubated with avidin coupled to peroxidase (Vector Laboratories) for 45 minutes at room temperature. After being washed for 10 minutes with 0.05 M TBS, slides are incubated with diaminobenzidine to give a brown reaction product. Some slides are counterstained with hematoxyln and all were mounted with Cytoseal.
To perform quantitative assessments, 10 µm serial sections are cut through half of each eye and sections roughly 50-60 µm apart are stained with lectin, providing 13 sections per eye for analysis. Lectin-stained sections are examined with an Axioskop microscope (Zeiss, Thornwood, NY) and images are digitized using a 3 CCD color video camera (IK-TU40A, Toshiba, Tokyo, Japan) and a frame grabber. Image-Pro Plus software (Media Cybernetics, Silver Spring, MD) is used to delineate lectin-stained cells on the surface of the retina and their area is measured. The mean of the 13 measurements from each eye is used as a single experimental value.

[2] = system: endothelial cells of mature vessels; assay: Effect on mature retinal vessels of adult mice, endothelial staining with image analysis; format: in vivo, Adult C57BL6J mice; conditions: 600 mg/kg by gavage once a day for 5 days
Protocol: as §1

[3] = system: retinal vascular development; assay: Retinal vascular development in neonatal mice, fluorescein-dextran perfused retinal flat mounts; format: in vivo, newborn C57/BL6J mice; conditions: 100 mg/kg daily subcutaneous
Protocol: Litters of newborn C57/BL6J mice (neonatal mice) are divided into treatment and control groups which received daily subcutaneous injections of 100 mg/kg of the drug or vehicle, respectively. At 7 or 10 days of age, the mice are anesthetized with ether, and perfused with 1 ml of phosphate-buffered saline containing 50 mg/ml of fluorescein-labeled dextran (2x10^6 average mw, Sigma, St. Louis, MO) as described by Tobe et al., Evolution of Neovascularization in Mice with Overexpression of VEGF in Photoreceptors, Invest. Ophthalmol. Vis. Sci. 39, 180-188 (1998). The eyes are removed and fixed for 1 hour in 10% phosphate-buffered formalin. The cornea and lens are removed and the entire retina is carefully dissected from the eyecup. Radially cuts are made from the edge of the retina to the equator in all 4 quadrants, and the retina is flat-mounted in Aquamount with photoreceptors facing upward. The flat mounts are examined by fluorescence microscopy, and the images are digitized using a 3 CCD color video camera and a frame grabber. Image-Pro™ Plus is used to measure the distance from the center of the optic nerve to the leading front of developing retinal vessels in each quadrant and the mean is used as a single experimental value.

[4] = system: choroidal neovascularization; assay: Laser-induced rupture of Bruch's membrane, choroidal neovascularization in mice; format: in vivo, C57BL/6J mice; conditions: 400 mg/kg/day orally by gavage
Protocol: C57BL/6J mice are treated in accordance with the Association for Research in Vision and Ophthalmology resolution for the treatment of animals. […] J Path, in press. Briefly, 4 to 5 week old male C57BL/6J mice are anesthetized with ketamine hydrochloride (100 mg/kg body weight) and the pupils are dilated with 1% tropicamide. Three bums of krypton laser photocoagulation (100 µm spot size, 0.1 seconds duration, 150 mW) are delivered to each retina using the slit lamp delivery system of a Coherent Model 920 Photocoagulator and a hand held cover slide as a contact lens. Bums are performed in the 9, 12, and 3 o'clock positions of the posterior pole of the retina. Production of a bubble at the time of laser, which indicates rupture of Bruch's membrane, is an important factor in obtaining CNV, so only mice in which a bubble is produced for all three bums are included. […] After 14 days, the mice are killed with an overdose of pentobarbital sodium, and their eyes are rapidly removed and frozen in optimal cutting temperature embedding compound (OCT). Frozen serial sections (10 µm) are cut through the entire extent of each burn and histochemically stained with biotinylated griffonia simplicifolia lectin B4 (Vector Laboratories, Burlingame, CA), which selectively binds to endothelial cells. Slides are incubated in methanol/H2O2 for 30 minutes at 4°C, washed with 0.05 M Tris-buffered saline, pH 7.4 (TBS), and incubated for 30 minutes in 10% normal swine serum. Slides are rinsed with 0.05M TBS and incubated 2 hours at 37°C with biotinylated lectin. After being rinsed with 0.05M TBS, slides are incubated with Streptavidin-phosphatase (Kirkegaard and Perry Laboratories, Cabin John, MD) for 30 minutes at room temperature. […]
To perform quantitative assessments, lectin-stained sections are examined with an Axioskop microscope (Zeiss, Thornwood, NY) and images are digitized using a 3 CCD color video camera (IK-TU40A, Toshiba, Tokyo, Japan) and a frame grabber. […]

[5] = 300 mg/kg twice a day by gavage

Q: Which “endothelial cell staining on and in the retinas (image analysis)” value ([1]; 60 mg/kg once a day, compared to vehicle-treated mice) does the source give for `CO[C@@H]1[C@H](N(C)C(=O)c2ccccc2)C[C@H]2O[C@]1(C)n1c3ccccc3c3c4c(c5c6ccccc6n2c5c31)C(=O)NC4` [NBS, N-benzoyl-staurosporine] here?
A: The value was “significantly less”.

Q: What about the “endothelial staining within the retina” value ([1]; 60 mg/kg twice a day by gavage) of the same compound?
A: The value was “some decrease”.

Q: What about the “clumps of neovascularization on the surface of the retina” value ([1]; 60 mg/kg twice a day by gavage) of the same compound?
A: Its value is “less than clumps in the retina of the vehicle-treated control mice”.

Q: What about the “endothelial staining within the retina” value [1, 5] of the same compound?
A: The value was “some decrease”.

Q: And the “clumps of neovascularization on the surface of the retina” value [1, 5]?
A: Its value is “less than clumps in the retina of the vehicle-treated control mice”.

Q: And the “endothelial cell staining in the inner nuclear layer and outer plexiform layer” value ([1]; 600 mg/kg once a day for 5 days)?
A: The value was “striking absence”.

Q: And the “endothelial cell staining on the surface and within the retina” value ([1]; 600 mg/kg once a day for 5 days by gavage, compared to vehicle-treated mice)?
A: The value was “dramatic decrease”.

Q: And the “endothelial cell staining within the retina” value ([1]; 600 mg/kg once a day for 5 days, compared to nonischemic mice)?
A: Its value is “less than that of the nonischemic mice”.

Q: And the “endothelial cell staining on and in the retinas (image analysis)” value ([1]; 600 mg/kg once a day, compared to vehicle-treated mice)?
A: The value was “significantly less”.

Q: What about the “toxicity to endothelial cells of mature vessels” value [2] of the same compound?
A: Its value is “not toxic”.

Q: What about the “total area of endothelial staining in the retina or the appearance of retinal vessels” value ([2]; compared to vehicle-treated mice) of the same compound?
A: Its value is “no difference”.

Q: And the “extension of retinal vessels” value ([3]; at 7 days of age)?
A: Its value is “only extend slightly more than halfway to the periphery”.

Q: And the “extension of superficial capillary bed” value ([3]; at 10 days of age)?
A: Its value is “has not yet reached the edge of the retina”.

Q: What about the “integrated area of lectin staining per lesion” value ([4]; 14 days, vehicle alone 0.0695621 ± 0.0073960 mm^2, p=0.004) of the same compound?
A: Its value is 0.009018 ± 0.001754 mm^2.

Q: And the “appearance of overlying retinal vessels” value ([4]; two weeks after laser)?
A: The value was “appear normal”.

Q: And the “choroidal neovascularization at the site of each laser-induced rupture of Bruch's membrane” value ([4]; two weeks after laser)?
A: The value was “very little if any”.
